Assay results reported in patent US12533428B2, “Multimodal fluorine-CY3/5/7-DOTA-hapten compositions, diagnostics, fluorescence guided surgery and radioimmunotherapy” (Memorial Sloan Kettering Cancer Center, priority 2019, dated 2026).

How the values were obtained:
[1] = system: GD2-expressing IMR32Luc neuroblastoma cells; experiment: Cell binding with anti-tumor/anti-DOTA BsAb, FACS; assay type: cell-based
Experimental: The cell binding activity of [F]Cy3D (Compound 6) was assayed with an anti-tumor/anti-DOTA bispecific antibody (BsAb). To detect binding of Compound 6 to GD2-expressing IMR32Luc neuroblastoma cells using an anti-GD2/anti-DOTA BsAb or a control BsAb (anti-HER2/anti-DOTA), cells were incubated with 1 μg of BsAb or PBS, washed and then incubated with several versions of Compound 6: (1) Compound 6, (2) [^175Lu]Pre-Compound 6 where ^175Lu was added before a mock ^19F isotope exchange, (3) [^19F]Pre-[^175Lu]Compound 6, where a mock ^19F isotope exchange was done before ^175Lu was added, and (4) [^175Lu]-Compound 6 where ^175Lu was directly added to Compound 6 without isotope exchange. Cells were analyzed by FACS or fluorescent microscopy.

IMR32luc cells = experiment: Cell binding with BsAb, fluorescent microscopy; assay type: cell-based; details: IMR32luc cells incubated with anti-GD2/anti-DOTA BsAb
Experimental: The cell binding of Compound 6 and [^175Lu]-Compound 6 variants was then studied using fluorescent microscopy. IMR32luc cells were incubated with Anti-GD2/Anti-DOTA BsAb, a control anti-DOTA BsAb or no BsAb, followed by incubation with Compound 6 or [^175Lu]-Compound 6 variants. […] Binding was not detected when a control anti-DOTA BsAb was added (FIG. 14) or no BsAb was added (FIG. 15).

[2] = system: GPA33-expressing human colorectal cancer SW1222 subcutaneous xenograft; experiment: Ex vivo biodistribution of anti-GPA33 pretargeted [^18F]CyD; assay type: in vivo, Athymic nude mice; details: 2 h p.i.
Experimental: (§1) In vivo pretargeting of [^18F]CyD for PET imaging of human colorectal cancer xenograft (SW1222 human carcinoma cell line). Athymic nude mice bearing the GPA33-expressing human colorectal cancer SW1222 subcutaneous xenograft were used as a model for anti-GPA33 DOTA-PRIT. The groups were intravenously (i.v.) injected with BsAb huA33-C825 (250 μg, 1.19 nmol), followed 24 h later with i.v. injection of dendron CA ([…], 2.76 nmol; (glycodendrimer-based CA α-thio-N-acetylgalactosamine-16-DOTA-Y^3; see WO2020014386)) and after an additional 4 h, i.v. injection of [^18F]CyD (1.295 MBq (35 μCi), 0.23 nmol). Non-invasive PET/CT imaging was performed using a preclinical Inveon PET/CT system at ˜1 h post-injection (p.i.) of [^18F]CyD (see FIG. 23), followed with ex vivo biodistribution assay of radioactivity.

[3] = system: GPA33-expressing human colorectal cancer SW1222 subcutaneous xenograft; experiment: PET/CT imaging of pretargeted [^18F]CyD; assay type: in vivo, Athymic nude mice; details: approximately 1 h after i.v. injection (1.295 MBq, 0.23 nmol), pretargeted tumor-bearing mice
Experimental: as §1

[4] = system: GPA33-expressing SW1222 colon cancer cells; experiment: Binding with anti-GPA33/anti-DOTA BsAb, FACS flow cytometry (MFI); assay type: cell-based, human
Experimental: Next [^175Lu]-Compound 6 binding to GPA33-expressing SW1222 colon cancer cells was investigated. SW1222 cells were incubated with 25, 2.5 or 0.25 pmol of anti-GPA33/Anti-DOTA BsAb, or a control (anti-GD2/anti-DOTA) BsAb, washed and mixed with 50, 5 or 0.5 pmol of [^175Lu]-Compound 6.

[5] = system: subcutaneous GD2-expressing tumor (IMR32Luc); experiment: ^18F-PET imaging of GD2-positive subcutaneous tumor; assay type: in vivo; details: IMR32Luc tumor mouse, anti-GD2/anti-DOTA BsAb 24 h and clearing agent 4 h before PET; image after 2 hours
Experimental: A pilot PET study using ([^175Lu][^18F]-Compound 6) was carried out. For that purpose, a mouse bearing a subcutaneous GD2-expressing tumor (IMR32Luc) was pretreated (24 hours pre PET) with an anti-GD2/anti-DOTA BsAb and followed with DOTA-dendrimer clearing agent (glycodendrimer-based CA α-thio-N-acetylgalactosamine-16-DOTA-Y^3; see WO2020014386) (4 hours before PET) and [^175Lu][^18F]-Compound 6. After 2 hours the image was collected by a PET scan. […] Moreover, the small size of [^175Lu][^18F]-Compound 6 reduced background activity dramatically in a short amount of time.

## CC1(C)C(/C=C/C=C2/N(CCCCCC(=O)Nc3ccc(CC4CN(CC(=O)O)CCN(CC(=O)O)CCN(CC(=O)O)CCN4CC(=O)O)cc3)c3ccc(S(=O)(=O)[O-])cc3C2(C)C)=[N+](CCCCCC(=O)NCC[N+](C)(C)C[B-](F)(F)F)c2ccc(S(=O)(=O)O)cc21 (centres unmarked) [Compound 6, [F]Cy3D]
[1]; IMR32Luc cells incubated with 1 μg anti-GD2/anti-DOTA BsAb
  Binding to cells (fluorescence, FACS): shows no fluorescence
[1]; IMR32Luc cells, negative controls: no BsAb or control BsAb (anti-HER2/anti-DOTA)
  Binding to cells (fluorescence, FACS): no binding
IMR32luc cells
  Binding to cells (fluorescent microscopy): did not show binding

## CC1(C)C(=C/C=C/C2=[N+](CCCCCC(=O)NCC[N+](C)(C)C[B-](F)(F)[18F])c3ccc(S(=O)(=O)[O-])cc3C2(C)C)N(CCCCCC(=O)Nc2ccc(CC3CN(CC(=O)[O-])CCN(CC(=O)[O-])CCN(CC(=O)[O-])CCN3CC(=O)[O-])cc2)c2ccc(S(=O)(=O)[O-])cc21.[175Lu+3] (centres unmarked) [[^18F]CyD]
[2]; SW1222-tumor bearing mice
  Bone uptake: 1.65±0.48 % ID/g
  Large intestine uptake: 8.41±2.62 % ID/g
[2]; n=3, SW1222-tumor bearing mice
  Blood uptake: 0.17±0.12 % ID/g
  Kidney uptake: 0.87±0.11 % ID/g
  Tumor Uptake: 5.14±1.24 % ID/g
[2]; tumor to blood
  T:NT for blood: 31±13
[2]; tumor to kidney
  T:NT for kidney: 6±1
[3]
  Activity in the tumor by PET/CT: high activity is present in the tumor

## CC1(C)C(=CC=CC2=[N+](CCCCCC(=O)NCC[N+](C)(C)C[B-](F)(F)F)c3ccc(S(=O)(=O)[O-])cc3C2(C)C)N(CCCCCC(=O)Nc2ccc(CC3CN(CC(=O)[O-])CCN(CC(=O)[O-])CCN(CC(=O)[O-])CCN3CC(=O)[O-])cc2)c2ccc(S(=O)(=O)[O-])cc21.[175Lu+3] (centres unmarked) [[^175Lu]-Compound 6, [F]Cy3D[^175Lu]]
[4]; SW1222 cells, 25, 2.5 or 0.25 pmol anti-GPA33/anti-DOTA BsAb, 50, 5 or 0.5 pmol probe
  Mean fluorescence (MFI) of binding: proportionate to the amount
[4]; SW1222 cells, control anti-GD2/anti-DOTA BsAb
  Binding to cells (FACS): no binding

## CC1(C)C(=CC=CC2=[N+](CCCCCC(=O)NCC[N+](C)(C)C[B-](F)(F)[18F])c3ccc(S(=O)(=O)[O-])cc3C2(C)C)N(CCCCCC(=O)Nc2ccc(CC3CN(CC(=O)[O-])CCN(CC(=O)[O-])CCN(CC(=O)[O-])CCN3CC(=O)[O-])cc2)c2ccc(S(=O)(=O)[O-])cc21.[175Lu+3] (centres unmarked) [[^175Lu][^18F]-Compound 6, [^18F]Cy3D[^175Lu]]
[5]
  Tumor targeting by PET scan: specifically targeted to the BsAb-treated tumor
